{"source": "paper PMC10825183", "about": "(Nature Communications, 2024)", "key": {"HCN4": {"system": "HCN4", "details": "cited from earlier work"}, "rbHCN4 ΔDE’ (1-723)": {"molecular_target": "rbHCN4 ΔDE’ (1-723) (Oryctolagus cuniculus, UniProt Q9TV66)"}, "rbHCN4 full-length (FL)": {"molecular_target": "T1, rbHCN4 full-length (FL) (Oryctolagus cuniculus, UniProt Q9TV66)", "T1 construct": "The cDNA encoding the full-length rabbit HCN4 was previously cloned in pCI (Promega) mammalian expression vector; expressed in transfected cells; host or cells: HEK293T", "T1 sequence (Q9TV66 1-1175)": "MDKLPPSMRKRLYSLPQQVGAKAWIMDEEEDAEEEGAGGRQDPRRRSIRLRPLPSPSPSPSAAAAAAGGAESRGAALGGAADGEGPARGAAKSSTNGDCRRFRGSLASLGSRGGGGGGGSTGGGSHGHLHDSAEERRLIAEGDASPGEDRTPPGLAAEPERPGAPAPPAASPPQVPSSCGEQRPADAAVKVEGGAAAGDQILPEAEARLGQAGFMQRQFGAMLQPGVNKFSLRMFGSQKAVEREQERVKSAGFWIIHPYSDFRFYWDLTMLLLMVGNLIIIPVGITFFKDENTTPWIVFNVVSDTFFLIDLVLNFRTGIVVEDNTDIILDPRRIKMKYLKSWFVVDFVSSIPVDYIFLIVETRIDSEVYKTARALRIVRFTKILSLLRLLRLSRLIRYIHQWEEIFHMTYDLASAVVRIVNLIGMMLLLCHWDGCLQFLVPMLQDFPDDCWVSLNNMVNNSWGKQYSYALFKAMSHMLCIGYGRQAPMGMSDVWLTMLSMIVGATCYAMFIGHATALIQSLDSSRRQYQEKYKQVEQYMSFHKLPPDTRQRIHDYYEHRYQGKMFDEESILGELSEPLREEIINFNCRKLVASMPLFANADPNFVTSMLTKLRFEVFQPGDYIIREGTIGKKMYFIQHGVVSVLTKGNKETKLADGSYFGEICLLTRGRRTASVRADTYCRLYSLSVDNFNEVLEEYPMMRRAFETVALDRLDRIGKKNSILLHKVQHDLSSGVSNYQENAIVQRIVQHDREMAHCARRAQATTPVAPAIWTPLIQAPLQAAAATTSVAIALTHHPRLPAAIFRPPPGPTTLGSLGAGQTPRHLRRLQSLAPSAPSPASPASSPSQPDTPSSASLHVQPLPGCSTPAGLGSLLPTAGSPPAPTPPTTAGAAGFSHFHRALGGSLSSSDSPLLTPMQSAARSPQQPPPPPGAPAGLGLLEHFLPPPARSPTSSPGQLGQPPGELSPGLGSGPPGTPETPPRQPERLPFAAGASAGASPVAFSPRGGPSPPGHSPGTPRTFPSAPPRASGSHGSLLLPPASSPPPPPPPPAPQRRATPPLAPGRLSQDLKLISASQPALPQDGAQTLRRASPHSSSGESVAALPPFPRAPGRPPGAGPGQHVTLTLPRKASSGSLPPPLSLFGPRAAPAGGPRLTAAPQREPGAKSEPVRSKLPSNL", "assay": "Whole-cell patch clamp in HEK293T cells, HCN4 full length", "format": "cell-based, rabbit"}, "rbHCN4 ΔE (1-733)": {"molecular_target": "T2, rbHCN4 ΔE (1-733) (Oryctolagus cuniculus, UniProt Q9TV66)", "T2 construct": "rbHCN4 ΔE (1-733); expressed in transfected cells; host or cells: HEK293T", "T2 sequence (Q9TV66 1-733)": "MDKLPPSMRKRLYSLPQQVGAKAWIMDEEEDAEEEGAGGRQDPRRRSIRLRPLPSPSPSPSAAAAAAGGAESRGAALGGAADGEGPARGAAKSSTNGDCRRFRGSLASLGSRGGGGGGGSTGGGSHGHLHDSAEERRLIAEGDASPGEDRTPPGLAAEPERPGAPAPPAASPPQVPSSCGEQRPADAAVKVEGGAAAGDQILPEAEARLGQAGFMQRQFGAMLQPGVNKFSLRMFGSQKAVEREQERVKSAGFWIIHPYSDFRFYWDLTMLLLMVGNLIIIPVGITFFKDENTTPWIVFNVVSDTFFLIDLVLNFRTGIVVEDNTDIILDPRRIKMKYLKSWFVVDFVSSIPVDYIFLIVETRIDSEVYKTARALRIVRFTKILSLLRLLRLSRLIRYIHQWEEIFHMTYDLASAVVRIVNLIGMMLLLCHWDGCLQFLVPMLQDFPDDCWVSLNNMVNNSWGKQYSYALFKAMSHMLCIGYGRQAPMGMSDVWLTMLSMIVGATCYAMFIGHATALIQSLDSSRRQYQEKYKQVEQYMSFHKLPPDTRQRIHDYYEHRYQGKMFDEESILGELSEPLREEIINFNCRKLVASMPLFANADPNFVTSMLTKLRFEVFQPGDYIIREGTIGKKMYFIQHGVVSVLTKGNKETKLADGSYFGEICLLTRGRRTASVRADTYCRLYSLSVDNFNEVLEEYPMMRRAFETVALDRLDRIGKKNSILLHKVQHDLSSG", "assay": "Whole-cell patch clamp in HEK293T cells, HCN4 ΔE", "format": "cell-based, rabbit"}, "human HCN2 CNBD ΔE": {"molecular_target": "T3, human HCN2 CNBD ΔE (Homo sapiens, UniProt Q9UL51)", "T3 sequence (Q9UL51 521-681)": "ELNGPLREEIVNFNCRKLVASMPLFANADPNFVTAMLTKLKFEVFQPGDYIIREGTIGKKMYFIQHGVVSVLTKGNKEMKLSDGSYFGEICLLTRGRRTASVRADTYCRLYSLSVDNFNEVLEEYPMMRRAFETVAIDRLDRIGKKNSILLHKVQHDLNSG", "assay": "Isothermal titration calorimetry (ITC), CNBD ΔE", "format": "binding", "details": "mean ± SEM, n = 3"}, "hHCN2 CNBD R662A": {"molecular_target": "hHCN2 CNBD R662A (Homo sapiens, UniProt Q9UL51, R662A)", "sequence (Q9UL51 521-706 R662A)": "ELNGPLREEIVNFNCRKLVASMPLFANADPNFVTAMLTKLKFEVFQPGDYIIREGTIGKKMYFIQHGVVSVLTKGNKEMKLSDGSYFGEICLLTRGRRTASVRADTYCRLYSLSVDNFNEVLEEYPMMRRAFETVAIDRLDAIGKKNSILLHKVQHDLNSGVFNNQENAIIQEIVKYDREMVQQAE", "details": "cAMP titrant"}, "[1]": {"details": "5 µM cAMP in pipette, mean ± SEM"}, "[2]": {"details": "Hill fit of shift in V1/2 vs cAMP concentration"}}, "note": "Where two headings read alike, the source gives them in different places.", "data": [{"smiles": "Nc1ncnc2c1ncn2[C@@H]1O[C@@H]2COP(=O)(O)O[C@H]2[C@H]1O", "note": "[cAMP, Adenosine 3′,5′-cyclic monophosphate]", "values": [{"measurement": "EC50", "setting": "HCN4; ref Baruscotti et al, 2017", "result": 1670, "unit": "nM"}, {"measurement": "EC50", "setting": "HCN4; ref Milanesi et al, 2006", "result": 1530, "unit": "nM"}, {"measurement": "EC50", "setting": "HCN4; ref Moller et al 2014", "result": 820, "unit": "nM"}, {"measurement": "V1/2 with cAMP", "setting": "rbHCN4 ΔDE’ (1-723); [1]", "result": "-95.5 ± 0.8", "unit": "mV"}, {"measurement": "k (inverse slope factor) with cAMP", "setting": "rbHCN4 ΔDE’ (1-723); 5 µM cAMP, mean ± SEM", "result": "8.4 ± 0.1", "unit": "mV"}, {"measurement": "Hill coefficient (nH)", "setting": "rbHCN4 ΔDE’ (1-723); [2]", "result": 1}, {"measurement": "V1/2 with cAMP", "setting": "rbHCN4 full-length (FL); 1 µM cAMP in pipette, mean ± SEM", "result": "-89.9 ± 1.6", "unit": "mV"}, {"measurement": "k (inverse slope factor) with cAMP", "setting": "rbHCN4 full-length (FL); 1 µM cAMP, mean ± SEM", "result": "11.7 ± 1", "unit": "mV"}, {"measurement": "V1/2 with cAMP", "setting": "rbHCN4 full-length (FL); [1]", "result": "-87.5 ± 0.7", "unit": "mV"}, {"measurement": "k (inverse slope factor) with cAMP", "setting": "rbHCN4 full-length (FL); 5 µM cAMP, mean ± SEM", "result": "10.6 ± 0.4", "unit": "mV"}, {"measurement": "V1/2 + cAMP", "setting": "rbHCN4 full-length (FL); 15 µM cAMP in pipette, mean ± SEM", "result": "-79.3 ± 0.9", "unit": "mV"}, {"measurement": "k + cAMP", "setting": "rbHCN4 full-length (FL); 15 µM cAMP, mean ± SEM", "result": "10.2 ± 1", "unit": "mV"}, {"measurement": "Hill coefficient (nH)", "setting": "rbHCN4 full-length (FL); [2]", "result": 0.9}, {"measurement": "V1/2 with cAMP", "setting": "rbHCN4 ΔE (1-733); [1]", "result": "-97.2 ± 0.6", "unit": "mV"}, {"measurement": "k (inverse slope factor) with cAMP", "setting": "rbHCN4 ΔE (1-733); 5 µM cAMP, mean ± SEM", "result": "9.1 ± 1.2", "unit": "mV"}, {"measurement": "V1/2 + cAMP", "setting": "rbHCN4 ΔE (1-733); 60 µM cAMP in pipette, mean ± SEM", "result": "-81.1 ± 0.8", "unit": "mV"}, {"measurement": "k + cAMP", "setting": "rbHCN4 ΔE (1-733); 60 µM cAMP, mean ± SEM", "result": "9.8 ± 0.8", "unit": "mV"}, {"measurement": "Hill coefficient (nH)", "setting": "rbHCN4 ΔE (1-733); [2]", "result": 0.9}, {"measurement": "Kd", "setting": "human HCN2 CNBD ΔE; KD, cAMP titrated into 20 µM CNBD, 25 °C", "result": "1200 ± 100", "unit": "nM"}, {"measurement": "stoichiometry (N)", "setting": "human HCN2 CNBD ΔE; cAMP titrant", "result": "1.0 ± 0.1"}, {"measurement": "stoichiometry (N)", "setting": "hHCN2 CNBD R662A; mean ± SEM, n = 3", "result": "0.9 ± 0.1"}, {"measurement": "N, representative sample (Fig. 4d)", "setting": "hHCN2 CNBD R662A; single ITC experiment", "result": 0.7}]}]}
